Patent US20240116985A1, “STAPLED PEPTIDES AND METHODS THEREOF” (priority 2020, published 2024)
In brackets after ≈: the same amount, converted by molar mass. Where two headings read alike, the source gives them in different places.

Columns and labels:
[1] = biological target: T1, full-length beta-Catenin (Uniprot ID P35222) (Homo sapiens, UniProt P35222); experiment: Fluorescence polarization IC50 (beta-catenin / 5FAM-TCF4 10-53 competition); assay type: binding
T1 construct: 10 nM full-length beta-Catenin (Uniprot ID P35222)
T1 sequence (P35222 1-781): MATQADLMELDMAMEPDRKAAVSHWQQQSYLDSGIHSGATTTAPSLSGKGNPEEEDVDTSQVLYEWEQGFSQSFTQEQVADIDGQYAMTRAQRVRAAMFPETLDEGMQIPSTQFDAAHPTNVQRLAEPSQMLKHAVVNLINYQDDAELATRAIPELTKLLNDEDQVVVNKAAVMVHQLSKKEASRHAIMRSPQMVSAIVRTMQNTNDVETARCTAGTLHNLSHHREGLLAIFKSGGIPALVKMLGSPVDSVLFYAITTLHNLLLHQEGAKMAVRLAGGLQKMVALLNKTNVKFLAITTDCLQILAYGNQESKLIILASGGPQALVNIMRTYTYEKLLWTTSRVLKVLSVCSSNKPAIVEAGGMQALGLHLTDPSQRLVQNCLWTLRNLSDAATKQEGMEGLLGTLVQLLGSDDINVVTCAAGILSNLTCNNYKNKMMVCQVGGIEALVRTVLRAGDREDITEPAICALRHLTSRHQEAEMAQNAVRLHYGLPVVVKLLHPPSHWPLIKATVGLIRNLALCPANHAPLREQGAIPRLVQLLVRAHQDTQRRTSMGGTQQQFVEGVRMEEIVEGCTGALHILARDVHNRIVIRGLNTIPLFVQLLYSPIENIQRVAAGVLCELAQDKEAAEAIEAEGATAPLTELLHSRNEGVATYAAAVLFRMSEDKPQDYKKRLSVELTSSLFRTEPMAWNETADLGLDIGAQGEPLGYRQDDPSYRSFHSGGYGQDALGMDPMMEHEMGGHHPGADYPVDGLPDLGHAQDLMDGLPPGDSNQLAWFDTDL

CHI Log D procedure = assay type: physicochemical; conditions: for chromatographic logD: pH 7.4, CHI Log D; for CHI Log D: pH 7.4
Solubility in PBS = assay type: physicochemical
Outline: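 Read-out is the HPLC peak area of the supernatant from ultracentrifuged PBS solution, scaled against a 50 μM peptide DMSO injection; value reported as [(PBS area)/(DMSO area)]*50 uM.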

Compound | IC50 ([1]; read-out: beta-Catenin FP IC50) | chromatographic logD (CHI Log D procedure) | Solubility (Solubility in PBS; Solubility (uM)) | IC50 ([1]; read-out: FP EC50) | CHI Log D (CHI Log D procedure) | Solubility (Solubility in PBS)
CC(=O)N1CCC[C@]12CC=CCCCC1(CCCC=CCCCCCC[C@@](C)(C(=O)N[C@@H](Cc3ccccc3)C(=O)N[C@@H](Cc3csc4ccccc34)C(=O)N[C@H](CO)C(N)=O)NC(=O)[C@H](CC(N)=O)NC(=O)[C@H](Cc3ccccc3)NC(=O)[C@H](C)NC(=O)[C@H](C)NC(=O)[C@H](CCC(=O)O)NC(=O)[C@H](CC(=O)O)NC1=O)NC(=O)[C@H](CC(C)C)NC(=O)[C@H](CC(=O)O)NC2=O (stereo partly drawn) [I-756, Ac-PL3-Asp-Leu-B5-Asp-Glu-Ala-Ala-Phe-Asn-S8-Phe-BztA-dSer-NH2] | 0.056 µM | 2.61 | 49 µM (≈ 89.6 µg/mL) |  |  | 
CC(=O)N1CCC[C@]12CC=CCCCC1(CCCC=CCCCCCC[C@@](C)(C(=O)N[C@@H](Cc3ccccc3)C(=O)N[C@@H](Cc3csc4ccccc34)C(=O)N[C@H](CC(N)=O)C(N)=O)NC(=O)[C@H](CC(N)=O)NC(=O)[C@H](Cc3ccccc3)NC(=O)[C@H](C)NC(=O)[C@H](C)NC(=O)[C@H](CCC(=O)O)NC(=O)[C@H](CC(=O)O)NC1=O)NC(=O)[C@H](CC(C)C)NC(=O)[C@H](CC(=O)O)NC2=O (stereo partly drawn) [I-758, Ac-PL3-Asp-Leu-B5-Asp-Glu-Ala-Ala-Phe-Asn-S8-Phe-BztA-dAsn-NH2] | 0.047 µM |  |  | 0.047 µM | 2.571 | 47 µM (≈ 87.2 µg/mL)
CC(=O)N1CCC[C@]12CC=CCCCC1(CCCC=CCOC(=O)N(C)CCC[C@@](C)(C(=O)N[C@@H](Cc3ccsc3)C(=O)N[C@@H](Cc3csc4ccccc34)C(=O)N[C@@H](CCC(N)=O)C(N)=O)NC(=O)[C@H](CC(N)=O)NC(=O)[C@H](Cc3ccccc3)NC(=O)[C@H](C)NC(=O)[C@H](C)NC(=O)[C@H](CC(=O)O)NC(=O)[C@H](CC(=O)O)NC1=O)NC(=O)[C@H](CC(C)(C)C)NC(=O)[C@H](CC(=O)O)NC2=O (stereo partly drawn) [I-765, Ac-PL3-Asp-Npg-B5-Asp-Asp-Ala-Ala-Phe-Asn-SeN-3Thi-BztA-Gln-NH2] | 0.228 µM |  |  | 0.228 µM | 1.71 | 49 µM (≈ 94.1 µg/mL)
CC(=O)N1CCC[C@]12CC=CCCCC1(CCCC=CCOC(=O)N(C)CCC[C@@](C)(C(=O)N[C@@H](Cc3ccsc3)C(=O)N[C@@H](Cc3csc4ccccc34)C(=O)N[C@@H](CCC(N)=O)C(N)=O)NC(=O)[C@H](CC(N)=O)NC(=O)[C@H](Cc3ccccc3)NC(=O)[C@H](C)NC(=O)[C@H](C)NC(=O)[C@H](CC(=O)O)NC(=O)[C@H](CC(=O)O)NC1=O)NC(=O)[C@H](CC(C)(C)C)NC(=O)[C@H](CC(=O)O)NC2=O (stereo partly drawn) [I-766, Ac-PL3-Asp-Npg-B5-Asp-Asp-Ala-Ala-Phe-Asn-SeN-3Thi-BztA-Gln-NH2] | 0.055 µM |  |  | 0.055 µM | 1.853 | 50 µM (≈ 96 µg/mL)
CC(=O)N1CCC[C@]12CC=CCCCC1(CCCC=CCOC(=O)N(C)CCC[C@@](C)(C(=O)N[C@@H](Cc3ccsc3)C(=O)N[C@@H](Cc3csc4ccccc34)C(=O)N[C@@H](Cc3c[nH]cn3)C(N)=O)NC(=O)[C@H](CC(N)=O)NC(=O)[C@H](Cc3ccccc3)NC(=O)[C@H](C)NC(=O)[C@H](C)NC(=O)[C@H](CC(=O)O)NC(=O)[C@H](CC(=O)O)NC1=O)NC(=O)[C@H](CC(C)(C)C)NC(=O)[C@H](CC(=O)O)NC2=O (stereo partly drawn) [I-773, Ac-PL3-Asp-Npg-B5-Asp-Asp-Ala-Ala-Phe-Asn-SeN-3Thi-BztA-His-NH2] | 0.167 µM |  |  | 0.167 µM | 1.76 | 47 µM (≈ 90.7 µg/mL)
CC(=O)N1CCC[C@]12CC=CCCCC1(CCCC=CCCCOC(=O)N3CC[C@@](C(=O)N[C@@H](Cc4ccsc4)C(=O)N[C@@H](Cc4c[nH]c5ccc(Cl)cc45)C(=O)N[C@@H](Cc4c[nH]cn4)C(N)=O)(C3)NC(=O)[C@H](CC(N)=O)NC(=O)[C@H](Cc3ccccc3)NC(=O)[C@H](C)NC(=O)[C@H](C)NC(=O)[C@H](CC(=O)O)NC(=O)[C@H](CC(=O)O)NC1=O)NC(=O)[C@H](CC(C)(C)C)NC(=O)[C@H](CC(=O)O)NC2=O (stereo partly drawn) [I-791, Ac-PL3-Asp-Npg-B5-Asp-Asp-Ala-Ala-Phe-Asn-PyrS2-3Thi-5C1W-His-NH2] | 0.31 µM | 2.05 | 48 µM (≈ 93.3 µg/mL) |  |  | 
CC(=O)N1CCC[C@]12CC=CCCCC1(CCCC=CCCCOC(=O)N3CC[C@@](C(=O)N[C@@H](Cc4ccc5ccccc5c4)C(=O)N[C@@H](Cc4csc5ccccc45)C(=O)N[C@@H](Cc4c[nH]cn4)C(N)=O)(C3)NC(=O)[C@H](CC(N)=O)NC(=O)[C@H](Cc3ccccc3)NC(=O)[C@H](C)NC(=O)[C@H](C)NC(=O)[C@H](CC(=O)O)NC(=O)[C@H](CC(=O)O)NC1=O)NC(=O)[C@H](CC(C)(C)C)NC(=O)[C@H](CC(=O)O)NC2=O (stereo partly drawn) [I-795, Ac-PL3-Asp-Npg-B5-Asp-Asp-Ala-Ala-Phe-Asn-PyrS2-2NapA-BztA-His-NH2] | 0.176 µM | 2.39 |  |  |  | 10 µM (≈ 19.7 µg/mL)
CC(=O)N1CCC[C@]12CC=CCCCC1(CCCC=CCCCOC(=O)N3CC[C@@](C(=O)N[C@@H](Cc4ccsc4)C(=O)N[C@@H](Cc4csc5ccccc45)C(=O)N[C@@H](Cc4c[nH]cn4)C(N)=O)(C3)NC(=O)[C@H](CC(N)=O)NC(=O)[C@H](CC(=O)O)NC(=O)[C@H](C)NC(=O)[C@H](C)NC(=O)[C@H](CC(=O)O)NC(=O)[C@H](CC(=O)O)NC1=O)NC(=O)[C@H](CC(C)(C)C)NC(=O)[C@H](Cc1ccccc1)NC2=O (stereo partly drawn) [I-796, Ac-PL3-Phe-Npg-B5-Asp-Asp-Ala-Ala-Asp-Asn-PyrS2-3Thi-BztA-His-NH2] |  | 2.45 | 35 µM (≈ 67.5 µg/mL) | 8.14 µM |  | 

Further compounds by falling IC50 ([1]; read-out: beta-Catenin FP IC50), results first:

IC50 ([1]; read-out: beta-Catenin FP IC50) | chromatographic logD (CHI Log D procedure) | Solubility (Solubility in PBS; Solubility (uM)) | IC50 ([1]; read-out: FP EC50) | CHI Log D (CHI Log D procedure) | Solubility (Solubility in PBS) | Compound
0.038 µM |  |  | 0.038 µM | 1.928 | 46 µM (≈ 88.7 µg/mL) | CC(=O)N1CCC[C@]12CC=CCCCC1(CCCC=CCOC(=O)N(C)CCC[C@@](C)(C(=O)N[C@@H](Cc3ccsc3)C(=O)N[C@@H](Cc3csc4ccccc34)C(=O)N[C@@H](Cc3c[nH]cn3)C(N)=O)NC(=O)[C@H](CC(N)=O)NC(=O)[C@H](Cc3ccccc3)NC(=O)[C@H](C)NC(=O)[C@H](C)NC(=O)[C@H](CC(=O)O)NC(=O)[C@H](CC(=O)O)NC1=O)NC(=O)[C@H](CC(C)(C)C)NC(=O)[C@H](CC(=O)O)NC2=O (stereo partly drawn) [I-774, Ac-PL3-Asp-Npg-B5-Asp-Asp-Ala-Ala-Phe-Asn-SeN-3Thi-BztA-His-NH2]
0.014 µM |  |  | 0.014 µM | 2.212 | 45 µM (≈ 86.9 µg/mL) | CC(=O)N1CCC[C@]12CC=CCCCC1(CCCC=CCCCOC(=O)N3CC[C@@](C(=O)N[C@@H](Cc4ccsc4)C(=O)N[C@@H](Cc4csc5ccccc45)C(=O)N[C@@H](CCC(N)=O)C(N)=O)(C3)NC(=O)[C@H](CCC(N)=O)NC(=O)[C@H](Cc3ccccc3)NC(=O)[C@H](C)NC(=O)[C@H](C)NC(=O)[C@H](CC(=O)O)NC(=O)[C@H](CC(=O)O)NC1=O)NC(=O)[C@H](CC(C)(C)C)NC(=O)[C@H](CC(=O)O)NC2=O (stereo partly drawn) [I-764, Ac-PL3-Asp-Npg-B5-Asp-Asp-Ala-Ala-Phe-Gln-PyrS2-3Thi-BztA-Gln-NH2]
0.005 µM |  |  |  | 2.137 | 41 µM (≈ 79.6 µg/mL) | CC(=O)N1CCC[C@]12CC=CCCCC1(CCCC=CCCCCOC(=O)N3CC[C@@](C(=O)N[C@@H](Cc4ccsc4)C(=O)N[C@@H](Cc4csc5ccccc45)C(=O)N[C@@H](Cc4c[nH]cn4)C(N)=O)(C3)NC(=O)[C@H](CC(N)=O)NC(=O)[C@H](Cc3ccccc3)NC(=O)[C@H](C)NC(=O)[C@H](C)NC(=O)[C@H](CC(=O)O)NC(=O)[C@H](CC(=O)O)NC1=O)NC(=O)[C@H](CC(C)(C)C)NC(=O)[C@H](CC(=O)O)NC2=O (stereo partly drawn) [I-776, Ac-PL3-Asp-Npg-B5-Asp-Asp-Ala-Ala-Phe-Asn-PyrS3-3Thi-BztA-His-NH2]
0.005 µM | 2.12 | 44 µM (≈ 84.8 µg/mL) |  |  |  | CC(=O)N1CCC[C@]12CC=CCCCC1(CCCC=CCCCOC(=O)N3CC[C@@](C(=O)N[C@@H](Cc4cccs4)C(=O)N[C@@H](Cc4csc5ccccc45)C(=O)N[C@@H](Cc4c[nH]cn4)C(N)=O)(C3)NC(=O)[C@H](CC(N)=O)NC(=O)[C@H](Cc3ccccc3)NC(=O)[C@H](C)NC(=O)[C@H](C)NC(=O)[C@H](CC(=O)O)NC(=O)[C@H](CC(=O)O)NC1=O)NC(=O)[C@H](CC(C)(C)C)NC(=O)[C@H](CC(=O)O)NC2=O (stereo partly drawn) [I-779, Ac-PL3-Asp-Npg-B5-Asp-Asp-Ala-Ala-Phe-Asn-PyrS2-2Thi-BztA-His-NH2]
0.005 µM | 2.08 |  |  |  | 50 µM (≈ 95.9 µg/mL) | CC(=O)N1CCC[C@]12CC=CCCCC1(CCCC=CCCCOC(=O)N3CC[C@@](C(=O)N[C@@H](Cc4ccsc4)C(=O)N[C@@H](Cc4csc5ccccc45)C(=O)N[C@@H](CCC(N)=O)C(N)=O)(C3)NC(=O)[C@H](CC(N)=O)NC(=O)[C@H](Cc3ccccc3)NC(=O)[C@H](C)NC(=O)[C@H](C)NC(=O)[C@H](CC(=O)O)NC(=O)[C@H](CC(=O)O)NC1=O)NC(=O)[C@H](CCC(C)C)NC(=O)[C@H](CC(=O)O)NC2=O (stereo partly drawn) [I-787, Ac-PL3-Asp-hLeu-B5-Asp-Asp-Ala-Ala-Phe-Asn-PyrS2-3Thi-BztA-Gln-NH2]
